Results reported in patent US9763942B2, “Serine/threonine kinase inhibitors” (Array BioPharma Inc., priority 2013, dated 2017).
Where two headings read alike, the source gives them in different places.

Assays:
[1] = tested on: PMA-stimulated P90RSK(Ser380) phosphorylation in HepG2 cells; assay: Cellular P90RSK(Ser380) Phosphorylation Assay; assay type: cell-based; conditions: Homo sapiens, 1.5 hours compound incubation, PMA 100 ng/mL 30 minutes, pP90RSK(Ser380) signal normalized to GAPDH, single assay or mean of multiple assays, read-out: Biological Example 2 IC50
Description: Inhibition of PMA-stimulated P90RSK(Ser380) phosphorylation was determined by the following in vitro cellular mechanistic assay, which comprises incubating cells with a compound for 1.5 hours and quantifying fluorescent pP90RSK(Ser380) signal on fixed cells and normalizing to GAPDH signal.
HepG2 cells were obtained from ATCC and grown in DMEM supplemented with 10% fetal bovine serum. Cells were plated in 96-well plates at 35,000 cells/well and allowed to attach overnight at 37° C./5% CO2. Diluted compounds were then added at a final concentration of 0.5% DMSO. After 1.5 hours compound incubation, cells were stimulated with the addition of phorbol 12-myristate 13-acetate (“PMA”) at a final concentration of 100 ng/mL; the PMA stimulation was a 30-minute incubation at 37° C./5% CO2. After the 30-minute PMA stimulation, cells were washed with phosphate buffered saline (“PBS”) and fixed in 3.7% formaldehyde in PBS at room temperature for 15-20 minutes. This was followed by another wash in PBS and then permeabilization in 100% MeOH at room temperature for 10-15 minutes. Following the permeabilization incubation, cells were washed in PBS/0.05% Tween-20, followed by a block in Odyssey blocking buffer (LI-COR Biosciences) for at least 1 hour. Antibodies to phosphorylated P90RSK(Ser380) (Cell Signaling #9335, rabbit monoclonal) and GAPDH (Fitzgerald 10R-G109a, mouse monoclonal) were added to the cells and incubated overnight at 4° C. pP90RSK(Ser380) antibody was used at a 1:250 dilution; GAPDH was used at a 1:10,000 dilution. After washing with PBS/0.05% Tween-20, the cells were incubated with fluorescently-labeled secondary antibodies (Anti-rabbit-Alexa Flour680, Invitrogen Cat#A21109; Anti-mouse-IRDye800CW, Rockland Inc. Cat#610-131-121) for 1 hour. Both secondary antibodies were used at a 1:1000 dilution. Cells were then washed and analyzed for fluorescence at both wavelengths using the Odyssey Infrared Imaging System (LI-COR Biosciences). Phosphorylated P90RSK(Ser380) signal was normalized to GAPDH signal.

[2] = biological target: T1, human ERK-2 (Mitogen Activated Kinase 1) (Homo sapiens, UniProt P28482); assay: ERK-2 Enzymatic Assay; assay type: biochemical
T1 construct: n-terminal 6-His fusion protein in E. coli and corresponding to aa 8-360; 6-His (N); made in house; host or cells: E. coli
T1 sequence (P28482 8-360): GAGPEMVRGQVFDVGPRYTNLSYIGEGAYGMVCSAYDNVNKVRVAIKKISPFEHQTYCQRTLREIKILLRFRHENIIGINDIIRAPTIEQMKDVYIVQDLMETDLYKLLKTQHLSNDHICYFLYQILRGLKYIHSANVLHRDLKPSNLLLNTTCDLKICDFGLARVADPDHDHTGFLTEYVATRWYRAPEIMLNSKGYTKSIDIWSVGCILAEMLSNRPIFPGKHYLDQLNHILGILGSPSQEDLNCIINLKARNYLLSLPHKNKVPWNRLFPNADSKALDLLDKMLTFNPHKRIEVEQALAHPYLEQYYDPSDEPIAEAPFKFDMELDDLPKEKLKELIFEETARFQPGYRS
Text: Table 1 contains representative data for Examples disclosed herein.

[3] = 5 nM ERK-2 enzyme, 25 μM ATP (observed Km), Omnia peptide S/T17, single assay or mean of multiple assays, read-out: Biological Example 1 IC50
[4] = ERK-2 enzymatic assay, read-out: IC50

IC50 [2, 3] [nM]	IC50 [2, 4] [nM]	SMILES	IC50 [1] [nM]
0.9	< 100	Cn1nccc1Nc1nccc(-c2ccc3c(c2)nnn3Cc2cccc(F)c2F)n1 [Example 1, 4-(1-(2,3-difluorobenzyl)-1H-benzo[1,2,3]triazol-5-yl)-N-(1-methyl-1H-pyrazol-5-yl)pyrimidin-2-amine]	22.7
1.9	< 100	Cn1nccc1Nc1nccc(-c2ccc3c(c2)nnn3CCn2cc(Cl)cn2)n1 [Example 4, 4-(1-(2-(4-chloro-1H-pyrazol-1-yl)ethyl)-1H-benzo[d][1,2,3]triazol-5-yl)-N-(1-methyl-1H-pyrazol-5-yl)pyrimidin-2-amine]	3.2
2.5	< 100	COc1ccc(Cn2nnc3cc(-c4ccnc(Nc5ccnn5C)n4)cnc32)cc1F [Example 5, 4-(3-(3-fluoro-4-methoxybenzyl)-3H-[1,2,3]triazolo[4,5-b]pyridin-6-yl)-N-(1-methyl-1H-pyrazol-5-yl)pyrimidin-2-amine]	16.8
2.6	< 100	COc1ccc(Cn2nnc3cc(-c4ccnc(N[C@@H]5CCOC[C@H]5F)n4)ccc32)cc1F [Example 6, 4-(1-(3-fluoro-4-methoxybenzyl)-1H-benzoyl[d][1,2,3]triazol-5-yl)-N-((3S,4R)-3-fluorotetrahydro-2H-pyran-4-yl)pyrimidin-2-amine]	58.2
2.9	< 100	COc1ccc(Cn2nnc3cc(-c4ccnc(Nc5cn(C)nc5C)n4)ccc32)cc1F [Example 8, N-(1,3-dimethyl-1H-pyrazol-4-yl)-4-(1-(3-fluoro-4-methoxybenzyl)-1H-benzo[d][1,2,3]triazol-5-yl)pyrimidin-2-amine]	56.8
4	< 100	Cn1nccc1Nc1nccc(-c2ccc3c(c2)nnn3CC2CCC(F)(F)CC2)n1 [Example 33, 4-(1-((4,4-difluorocyclohexyl)methyl)-1H-benzo[d][1,2,3]triazol-5-yl)-N-(1-methyl-1H-pyrazol-5-yl)pyrimidin-2-amine]	63.3
5.7	< 100	CCOCCCn1nnc2cc(-c3ccnc(Nc4ccnn4C)n3)ccc21 [Example 43, 4-(1-(3-ethoxypropyl)-1H-benzo[d][1,2,3]triazol-5-yl)-N-(1-methyl-1H-pyrazol-5-yl)pyrimidin-2-amine]	68.5
5.1	< 100	Cn1nccc1Nc1cc(-c2ccc3c(c2)nnn3Cc2ccc(Cl)cc2)ccn1 [Example 55, 4-(1-(4-chlorobenzyl)-1H-benzo[d][1,2,3]triazol-5-yl)-N-(1-methyl-1H-pyrazol-5-yl)pyridin-2-amine]	184
7.8	< 100	Cc1ncccc1Cn1nnc2cc(-c3ccnc(Nc4ccnn4C)c3)ccc21 [Example 56, N-(1-methyl-1H-pyrazol-5-yl)-4-(1-((2-methylpyridin-3-yl)methyl)-1H-benzo[d][1,2,3]triazol-5-yl)pyridin-2-amine]	781
11.4	< 100	Cc1cccc(Cn2nnc3cc(-c4ccnc(Nc5ccnn5C)n4)ccc32)n1 [Example 58, N-(1-methyl-1H-pyrazol-5-yl)-4-(1-((6-methylpyridin-2-yl)methyl)-1H-benzo[d][1,2,3]triazol-5-yl)pyrimidin-2-amine]	437
53.2	< 100	Cn1nccc1Nc1nccc(-c2ccc3c(c2)nnn3CC2CNC2)n1 [Example 62, 4-(1-(azetidin-3-ylmethyl)-1H-benzo[d][1,2,3]triazol-5-yl)-N-(1-methyl-1H-pyrazol-5-yl)pyrimidin-2-amine]	1400
1.7	< 100	COc1ccc([C@@H](c2cnn(C)c2)n2nnc3cc(-c4ccnc(Nc5ccnn5C)n4)ccc32)cc1F [Example 70]	79.1
2	< 100	COc1ccc([C@@H](c2nccn2C)n2nnc3cc(-c4ccnc(Nc5ccnn5C)n4)ccc32)cc1F [Example 72, (S)-4-(1-((3-fluoro-4-methoxyphenyl)(1-methyl-1H-imidazol-2-yl)methyl)-1H-benzo[d][1,2,3]triazol-5-yl)-N-(1-methyl-1H-pyrazol-5-yl)pyrimidin-2-amine]	3.7
2.8	< 100	CN1CC(n2nnc3cc(-c4ccnc(Nc5ccnn5C)n4)ccc32)C1 [Example 86, N-(1-methyl-1H-pyrazol-5-yl)-4-(1-(1-methylazetidin-3-yl)-1H-benzo[d][1,2,3]triazol-5-yl)pyrimidin-2-amine]	21.8
2.2	< 100	Cn1nccc1Nc1nccc(-c2ccc3c(c2)nnn3CCn2cccn2)n1 [Example 104, 4-(1-(2-(1H-pyrazol-1-yl)ethyl)-1H-benzo[d][1,2,3]triazol-5-yl)-N-(1-methyl-1H-pyrazol-5-yl)pyrimidin-2-amine]	19.6
–	< 100	COc1ncccc1Cn1nnc2cc(-c3ccnc(Nc4ccnn4C)n3)cnc21 [Example 126, 4-(3-((2-methoxypyridin-3-yl)methyl)-3H-[1,2,3]triazolo[4,5-b]pyridin-6-yl)-N-(1-methyl-1H-pyrazol-5-yl)pyrimidin-2-amine]	–
